Experimental data taken from PubChem BioAssay AID248 (DTP/NCI, 2004).
Where “and” joins values, the source holds several entries; their conditions need not be identical. Equal entries are not always repeated. Inconclusive results and toxic doses are left out. Rule as the data show it: active = T/C of 150% or more; inactive = T/C below 125%.

Test system: L1210 leukemia ip in BDF1 mice, survival T/C
Assay: NCI In Vivo Anticancer Drug Screen. Data for tumor model L1210 Leukemia (intraperitoneal) in B6D2F1 (BDF1) mice
Details: endpoint: mean survival time, higher = longer survival
Method in brief: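 Ratio derived from survival: compound-dosed mice over vehicle-dosed mice, all bearing a transplantable tumor.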

[1] = dose: 100.0 mg/kg/injection, schedule: Q01DX009 (ip), vehicle: saline with Tween-80
[2] = dose: 200.0 mg/kg/injection, schedule: Q01DX009 (ip), vehicle: saline with Tween-80
[3] = dose: 400.0 mg/kg/injection, schedule: Q01DX009 (ip), vehicle: saline with Tween-80
[4] = dose: 200.0 mg/kg/injection, schedule: Q01DX001 (ip), vehicle: carboxymethylcellulose (CMC)
[5] = dose: 400.0 mg/kg/injection, schedule: Q01DX001 (ip), vehicle: carboxymethylcellulose (CMC)
[6] = dose: 100.0 mg/kg/injection, schedule: Q04DX003 (ip), vehicle: saline
[7] = dose: 200.0 mg/kg/injection, schedule: Q04DX003 (ip), vehicle: saline
[8] = dose: 100.0 mg/kg/injection, schedule: Q04DX003 (ip), vehicle: Klucel (hydroxypropylcellulose) (HPC)
[9] = dose: 200.0 mg/kg/injection, schedule: Q04DX003 (ip), vehicle: Klucel (hydroxypropylcellulose) (HPC)
[10] = dose: 400.0 mg/kg/injection, schedule: Q04DX003 (ip), vehicle: Klucel (hydroxypropylcellulose) (HPC)

Measured: T/C

CCOC(=O)C(C#N)C(C)CC#N (configuration not stated)
inactive: [1] 119 % of control | [2] 117 % of control | [3] 108 % of control

CCCC/C(COC)=N\N=C(\CCOC)COC
inactive: [4] 94 % of control | [5] 94 % of control

Cc1nc(C)c2c(c1C)-c1ccccc1C2=O
inactive: dose: 50.0 mg/kg/injection, schedule: Q01DX009 (ip), vehicle: other 104 % of control | dose: 50.0 mg/kg/injection, schedule: Q01DX009 (ip), vehicle: saline + alcohol 108 % of control | dose: 100.0 mg/kg/injection, schedule: Q01DX009 (ip), vehicle: other 100 % of control | dose: 100.0 mg/kg/injection, schedule: Q01DX009 (ip), vehicle: saline + alcohol 106 % of control | [6] 102 % of control | dose: 200.0 mg/kg/injection, schedule: Q01DX009 (ip), vehicle: other 100 % of control | dose: 200.0 mg/kg/injection, schedule: Q01DX009 (ip), vehicle: saline + alcohol 108 % of control | [7] 101 % of control | dose: 400.0 mg/kg/injection, schedule: Q01DX009 (ip), vehicle: other 107 % of control | dose: 400.0 mg/kg/injection, schedule: Q01DX009 (ip), vehicle: saline + alcohol 98 % of control | dose: 400.0 mg/kg/injection, schedule: Q04DX003 (ip), vehicle: saline 107 % of control | dose: 500.0 mg/kg/injection, schedule: Q01DX009 (ip), vehicle: other 95 % of control

COC(=N)C/C=C/CC(=N)OC
inactive: dose: 100.0 mg/kg/injection, schedule: Q01DX009 (ip), vehicle: saline 94 % of control | dose: 200.0 mg/kg/injection, schedule: Q01DX009 (ip), vehicle: saline 94 % of control | dose: 400.0 mg/kg/injection, schedule: Q01DX009 (ip), vehicle: saline 92 % of control

CC(C)N1CCOC1c1ccccc1 (configuration not stated)
inactive: dose: 50.0 mg/kg/injection, schedule: Q01DX009 (ip), vehicle: saline sonified 105 % of control | dose: 100.0 mg/kg/injection, schedule: Q01DX009 (ip), vehicle: saline sonified 105 % of control | [6] 100 % of control | dose: 200.0 mg/kg/injection, schedule: Q01DX009 (ip), vehicle: saline sonified 100 % of control | [7] 96 % of control

CCCc1ccc(O)c(O)c1
inactive: dose: 20.0 mg/kg/injection, schedule: Q01DX001 (ip), vehicle: saline 103 % of control | dose: 20.0 mg/kg/injection, schedule: Q01DX009 (ip), vehicle: saline 105 % of control | dose: 40.0 mg/kg/injection, schedule: Q01DX001 (ip), vehicle: saline 96 % of control | dose: 40.0 mg/kg/injection, schedule: Q01DX009 (ip), vehicle: saline 93 % of control | dose: 80.0 mg/kg/injection, schedule: Q01DX001 (ip), vehicle: saline 92 % of control

Oc1cccnc1I
inactive: dose: 50.0 mg/kg/injection, schedule: Q01DX001 (ip), vehicle: saline 102 % of control | dose: 100.0 mg/kg/injection, schedule: Q01DX001 (ip), vehicle: saline 98 % of control | dose: 200.0 mg/kg/injection, schedule: Q01DX001 (ip), vehicle: saline 98 % of control | dose: 400.0 mg/kg/injection, schedule: Q01DX001 (ip), vehicle: saline 102 % of control

CCCCCCCCCCCC(=O)NC(=S)Nc1ccccc1C(F)(F)F
inactive: [8] 104 % of control | [9] 92 % of control | [10] 92 % of control

O=S(=O)(O)c1ccccc1O
inactive: dose: 25.0 mg/kg/injection, schedule: Q01DX009 (ip), vehicle: saline 101 % of control | dose: 50.0 mg/kg/injection, schedule: Q01DX009 (ip), vehicle: saline 98 % of control

CC(c1ccccc1)C1N(c2ccccc2)CCN1c1ccccc1 (configuration not stated)
inactive: [8] 94 % of control | [9] 100 % of control | [10] 102 % of control

COC(C)(OC)C(N)=O
inactive: [1] 96 % of control | [8] 94 % of control | [2] 111 % of control | [9] 96 % of control | [3] 98 % of control | [10] 92 % of control

CC(CC(=O)OCC(F)(F)C(F)(F)C(F)(F)C(F)F)CC(=O)OCC(F)(F)C(F)(F)C(F)(F)C(F)F
inactive: dose: 50.0 mg/kg/injection, schedule: Q01DX001 (ip), vehicle: carboxymethylcellulose (CMC) 96 % of control | dose: 100.0 mg/kg/injection, schedule: Q01DX001 (ip), vehicle: carboxymethylcellulose (CMC) 100 % of control | [4] 96 % of control | [5] 91 % of control

C/C(=N\NC(N)=O)C(F)(F)F
inactive: dose: 15.0 mg/kg/injection, schedule: Q01DX Z (ip), vehicle: carboxymethylcellulose (CMC) 110 % of control | dose: 30.0 mg/kg/injection, schedule: Q01DX Z (ip), vehicle: carboxymethylcellulose (CMC) 93 % of control | dose: 60.0 mg/kg/injection, schedule: Q01DX Z (ip), vehicle: carboxymethylcellulose (CMC) 100 % of control and 103 % of control | dose: 120.0 mg/kg/injection, schedule: Q01DX Z (ip), vehicle: carboxymethylcellulose (CMC) 103 % of control and 109 % of control | dose: 120.0 mg/kg/injection, schedule: Q01DX Z (oral), vehicle: carboxymethylcellulose (CMC) 109 % of control | dose: 240.0 mg/kg/injection, schedule: Q01DX Z (ip), vehicle: carboxymethylcellulose (CMC) 112 % of control | dose: 240.0 mg/kg/injection, schedule: Q01DX Z (oral), vehicle: carboxymethylcellulose (CMC) 101 % of control | dose: 480.0 mg/kg/injection, schedule: Q01DX Z (oral), vehicle: carboxymethylcellulose (CMC) 90 % of control

COC(=O)C(=O)OC(=O)C(=O)OC
inactive: dose: 25.0 mg/kg/injection, schedule: Q04DX003 (ip), vehicle: saline 104 % of control | dose: 50.0 mg/kg/injection, schedule: Q04DX003 (ip), vehicle: saline 120 % of control | [6] 92 % of control

O=[N+]([O-])c1ccc(N=Nc2c(Cl)cc(O)cc2Cl)cc1
inactive: dose: 25.0 mg/kg/injection, schedule: Q01DX009 (ip), vehicle: saline with Tween-80 96 % of control | dose: 50.0 mg/kg/injection, schedule: Q01DX009 (ip), vehicle: saline with Tween-80 89 % of control | [1] 89 % of control

CCN(CC)c1ccc(NC(=O)Nc2ccccc2C)cc1
inactive: [1] 93 % of control | dose: 100.0 mg/kg/injection, schedule: Q04DX003 (ip), vehicle: saline with Tween-80 100 % of control | [2] 90 % of control | dose: 200.0 mg/kg/injection, schedule: Q04DX003 (ip), vehicle: saline with Tween-80 94 % of control | [3] 94 % of control | dose: 400.0 mg/kg/injection, schedule: Q04DX003 (ip), vehicle: saline with Tween-80 94 % of control
